Key:
[1] = Pigment dispersion: amount of Z-cote dispersed before viscosity reaches 10,000 cps; type: physicochemical; conditions: 100 g solubilizer/dispersant; Brookfield RVT 20 rpm, 25° C.
Description: (§1) The branched primary alcohol component and the Z-cote were mixed for 15 minutes at 5000 rpm using a Silverson mixer to form a dispersion of zinc oxide in the alcohol component. The dispersion was allowed to equilibrate to room temperature (25° C.), and then viscosity measurements were taken using a Brookfield (RTM) RVT Viscometer set at 20 rpm. Additional Z-cote was then added to the branched alcohol component in incremental amounts of 15 g. Viscosity measurements were taken after mixing each incremental amount of Z-cote with the branched alcohol component for 15 minutes and after allowing the resulting dispersion to return to room temperature. When the viscosity of the dispersion reached or exceeded 10,000 cps no further additions of Z-cote were made and no further viscosity measurements were taken. A target viscosity of 10,000 cps was selected since a dispersion having a viscosity of greater than 10,000 cps is not preferred for use in a sunscreen composition.
From FIG. 1, the amount of Z-cote needed to provide a dispersion having a viscosity of 10,000 cps may be determined for each solubilizer/dispersant.
(§2) Pigment Dispersion: Pigment was added to a 100 gm of emollient sample. The mixture was blended using a Silverson mixer for 15 minutes at 5000 rpm. The viscosity was measured after the sample had equilibrated to room temperature.

[2] = Pigment dispersion: amount of Z-cote HP1 dispersed before viscosity reaches 10,000 cps; type: physicochemical; conditions: 100 g solubilizer/dispersant; Brookfield RVT 20 rpm, 25° C.
Description: as §1, §2

[3] = Pigment dispersion: amount of Eusolex T2000 dispersed before viscosity reaches 10,000 cps; type: physicochemical; conditions: 100 g solubilizer/dispersant; Brookfield RVT 20 rpm, 25° C.
Description: as §1, §2

[4] = In vitro SPF of sunscreen formulation with dispersing agent; conditions: sunscreen formulation with 15.00 % by weight dispersing agent; artificial medium
Description: (§3) This example compares the alcohol of the present invention to several other dispersing agents in terms of in vitro SPF and viscosity. In vitro SPF means that the test was not carried out on human skin, but an artificial medium. The sunscreen formulation is manufactured as follows. The ingredients of Phase A are combined together at 75° C. The ingredients of Phase B are combined together at 75° C. Phase B is then added to Phase A. Phase C is added to the resulting mixture, followed by cooling of the mixture to 40° C. and adding Phase D. The formulation is ready for packaging at a temperature of 35° C.

[5] = Viscosity of sunscreen formulation with dispersing agent; type: physicochemical; conditions: sunscreen formulation with 15.00 % by weight dispersing agent
Description: as §3

[6] = Solubility profile of branched emollient alcohols in cosmetic solvents; type: physicochemical; parameters: key: +: Soluble; +/−: Dispersible
[7] = Viscosity of lotion/moisturizer emulsions containing the fatty alcohol; type: physicochemical
Description: Solubility: Two emulsion types (W/O-water-in-oil night cream/lotion and O/W-oil-in-water moisturizer lotion) were prepared. Both types of products incorporated commonly used cosmetic ingredients. The C1617 MM MO and the Guerbet C16 alcohols were used at 15% in the W/O lotion and 10% in the moisturizer.
MO C1617 mono-methyl branched primary alcohol was formulated in a water-in-oil night cream and an oil-in-water moisturizer formula as indicated in Tables 8 and 10 respectively. The viscosity and formula properties of the MO methyl-branched primary alcohol were evaluated relative to a branched C18 emollient alcohol and the data is indicated in Tables 9 and 11 respectively.

[8] = Freeze/Thaw testing of prototype formulation (3 cycles); type: physicochemical; conditions: three 24 hr. freeze/thaw cycles
Description: Freeze/Thaw testing: Phase stability was observed using approximately 30 ml of a prototype formulation. After preparation, the samples were cooled until solid for 24 hrs. They were allowed to equilibrate to room temperature when the appearance of the formulation was recorded. This process was repeated for three 24 hr. freeze/thaw cycles.

[9] = Oven stability test of W/O and O/W lotions; type: physicochemical; conditions: 90 days at 23° C. and 45° C.
Description: Stability Tests: All W/O and O/W lotions were placed on stability testing for phase and odor stability monitoring for 90 days at 23° C. (room temperature) and 45° C.

[10] = Table 8 formulation, 15.0 % wt fatty alcohol
[11] = Table 10 oil-in-water moisturizer, 10.0 % wt fatty alcohol

In the case of CCCCCCCCOC(=O)CCCCCCCCC(=O)OCCCCCCCC [Dioctyl sebacate (DOS), Dioctyl sebacate], the “Amount in grams of Z-cote needed to give a viscosity of 10,000 cps” value [1] is reported as 20 grams, the “Amount in grams of Z-cote HP1 needed to give a viscosity of 10,000 cps” value [2] is reported as 50 grams and the “Amount in grams of Eusolex T2000 needed to give a viscosity of 10,000 cps” value [3] is reported as 34 grams.
For CCCCCCCCCCCCCCCC(=O)OCC(CC)CCCC (centres unmarked) [Ethylhexylpalmitate], the “In-vitro SPF” value [4] was 22.73 and the “Viscosity, cps” value [5] was 13000 cps.
With CCCCCCCCC(CO)CCCCCC (centres unmarked) [Guerbet C16 Branched] the Solubility ([6]; C12-15 Alkyl Benzoate (90%), @ 25° C.) was “+”, the Solubility ([6]; C12-15 Alkyl Benzoate (90%), @ 50° C.) was “+” and the Solubility ([6]; Dimethicone 245 (90%), @ 25° C.) was “+”. The Solubility ([6]; Dimethicone 245 (90%), @ 50° C.) was “+”, the Solubility ([6]; Isododecane (90%), @ 25° C.) was “+” and the Solubility ([6]; Isododecane (90%), @ 50° C.) was “+”. For the same molecule, the Solubility ([6]; Isohexadecane (90%), @ 25° C.) was “+”, the Solubility ([6]; Isohexadecane (90%), @ 50° C.) was “+” and the Solubility ([6]; Isopropylmyristyl Alcohol (90%), @ 25° C.) was “+”. For the same molecule, the Solubility ([6]; Isopropylmyristyl Alcohol (90%), @ 50° C.) was “+”, the Solubility ([6]; Mineral Oil (90%), @ 25° C.) was “+” and the Solubility ([6]; Mineral Oil (90%), @ 50° C.) was “+”. For the same molecule, the Solubility ([6]; Octocrylene (30%), @ 25° C.) was “+”, the Solubility ([6]; Octocrylene (30%), @ 50° C.) was “+” and the Solubility ([6]; Octyl Dimethyl Paba (30%), @ 25° C.) was “+”. The Solubility ([6]; Octyl Dimethyl Paba (30%), @ 50° C.) was “+”, the Solubility ([6]; Octyldodecanol (90%), @ 25° C.) was “+” and the Solubility ([6]; Octyldodecanol (90%), @ 50° C.) was “+”. For the same molecule, the Solubility ([6]; Propylene Glycol (90%), @ 25° C.) was “+/−”, the Solubility ([6]; Propylene Glycol (90%), @ 50° C.) was “+” and the Solubility ([6]; Sesame Oil (90%), @ 25° C.) was “+”. The Solubility ([6]; Sesame Oil (90%), @ 50° C.) was “+”, the “Viscosity, cps” value [7, 10] was 7,600 cps and the “Viscosity, cps” value [7, 11] was 11,300 cps. The “Freeze-Thaw (3 cycles)” value [8, 10] was “Pass”, the “Freeze-Thaw (3 cycles)” value [8, 11] was “Pass” and the “Oven Stability” value [9, 10] was “Pass”. For the same molecule, the “Oven Stability” value [9, 11] was “Pass”, the “In-vitro SPF” value [4] was 22.6 and the “Viscosity, cps” value [5] was 2700 cps.
In the case of “octyldodecyl neopentanoate [Elefac I-205]”, the “Amount in grams of Z-cote needed to give a viscosity of 10,000 cps” value [1] is reported as 24 grams, the “Amount in grams of Z-cote HP1 needed to give a viscosity of 10,000 cps” value [2] is reported as 65 grams and the “Amount in grams of Eusolex T2000 needed to give a viscosity of 10,000 cps” value [3] is reported as 35 grams.
